The source of these data is patent US8518882B2, “Methods and compositions for ameliorating or inhibiting decline in memory or intelligence or improving same” (priority 1998, dated 2013).

In data set [1] the test system is PC12 cells. The data set can be described thus: Uptake of uridine into PC12 cells. It is filed as cell-based.
The test system of data set [2] is IP signaling. In words: PI turnover / inositol phosphate formation in NGF-differentiated PC12 cells. To be noted: for Formation of IP: NGF-differentiated PC12 cells, 1 hour, UTP 100 μM (p<0.05), uridine 50 μM (p<0.01). It is filed as cell-based. How it is done:
Analysis of PI turnover was performed as described by (Nitsch R M et al, J Neurochem 69: 704-12, 1997). Briefly, cells were labeled metabolically for 36 h with 1.25 microCurie (μCi)/dish of myo-[2-^3H]inositol (17.0 Curie/mmol; Amersham Biosciences) in serum-free MEM, washed twice with Hank's balanced salt solution (HBSS), and treated for 15 min with 10 mM lithium chloride in HBSS. Drugs were added in the presence of 10 mM lithium for 60 min at 37° C. Cells were lysed with ice-cold methanol, and lipids were removed by extraction with chloroform/methanol/water (2:2:1 by volume). Labeled water-soluble inositol phosphates were separated from free [^3H]inositol by ion-exchange chromatography, using AG 1-X8 columns (Bio-Rad), and 1M ammonium formate and 0.1M formic acid as eluent. Radioactivity was quantified by liquid scintillation spectrometry.

The test system of data set [3] is PC12 cells. The data set can be described thus: Intracellular UTP and CTP levels in PC12 cells by HPLC. It is filed as cell-based. Particulars: 2 days with NGF; uridine 50 μM, UTP 100 μM, cytidine 50 μM. The protocol:
(§1) Brain tissue or cells was dissolved in methanol/chloroform (1:2 vol/vol), centrifuged, and the aqueous phase was dried under vacuum, resuspended in 100-200 μL water and separated by HPLC on an ion-exchange column (Alltech Hypersil APS-2, 5 μM, 250×4.6 mm). CDP-choline was eluted with a linear gradient of NaH2PO4 buffers A (1.75 mM NaH2PO4, pH 2.9) and B (500 mM, pH 4.5), which allowed resolution of CDP-choline from closely co-eluting substances such as UMP over 40 min. The retention time for CDP-choline was 9.5 min. Individual nucleotide peaks were detected by UV absorption at […], and were identified by comparison with the positions of authentic standards, as well as by the addition of nucleotide standards to selected samples.
Levels of intracellular UTP and CTP were analyzed by HPLC as described for Example 5, except that 5 mM NaH2PO4, pH 2.65 was used as buffer A.

For data set [4], the system named is PC12 cells. The data set can be described thus: NGF-induced neurite outgrowth, branching and length in PC12 cells. It is filed as cell-based. The protocol:
(§2) PC12 cells were maintained in Minimal Essential Medium (MEM; Invitrogen, Carlsbad, Calif.) supplemented with 10% fetal bovine serum (FBS) at 37° C. Experimental incubations were for 2 or 4 days in medium containing 50 ng/ml mouse 2.5 S (2.5 subunit) NGF and 1% FBS, with or without test compounds. NGF and FBS were obtained from Invitrogen.
PC12 cells were sparsely plated on collagen-coated 60 mm culture dishes in MEM containing 1% fetal bovine serum. […] All treatments were performed 24 h after plating. At the end of the treatment period, images were obtained with a phase-contrast Zeiss Axioplan 2 microscope, using OpenLab software. Six digital images were captured for each dish, for a total of 18 to 24 images per treatment group Approximately 300 cells were quantified for each treatment group for each experiment. Experiments were performed in triplicate. Quantification of neurites, including neurite branching and neurite length, was performed by one more researchers blinded to experimental groups Neurite length was measured using the public domain NIH software “Image J.” Processes longer than the diameter of the cell body were counted as neurites. Only process-bearing cells were analyzed.

Data set [5] relates to P2Y2, P2Y4 and P2Y6 receptors. In words: P2Y receptor expression in NGF-differentiated PC12 cells. It is filed as cell-based. To be noted: compared with cells exposed to NGF alone. How it is done: Western blots utilized rabbit anti-P2Y2, anti-P2Y4 (both from Calbiochem); or rabbit anti-P2Y6 (Novus Biologicals, Littleton, Colo.).
PC 12 cells were treated as described above, except they were grown on 12 mm glass cover slips (A Daigger & Co., Vernon Hills, Ill.) coated with collagen. Proteins were visualized using immunofluorescence. Briefly, the cells were fixed with 4% paraformaldehyde, permeabilized with 0.25% Triton X-100, blocked in 10% normal goat serum, and incubated overnight in the appropriate antibodies (mouse anti-NF-70, and either rabbit anti-P2Y2, rabbit anti-P2Y4 or rabbit anti-P2Y6). For P2Y2 and P2Y4 visualization, control cultures were incubated with primary antibody plus a control antigen in order to ensure that the immuno-staining would be specific. Control antigen was not available for the P2Y6 receptor. Cells were then incubated in fluorochrome-conjugated secondary antibodies for 1 hour (goat anti-rabbit ALEXA 488 and goat anti-mouse ALEXA 568; Molecular Probes, Eugene, Oreg.) and mounted on glass slides with mounting media with or without DAPI (Vector Laboratories, Burlingame, Calif.). Control antigens provided with the primary antibodies were used to ensure that immuno-staining was specific. Digital images were obtained on a Zeiss (Oberkochen, Germany) Axioplan microscope with OpenLab software, using a Zeiss Plan-Neofluor 40× oil-immersion objective.

Data set [6] has as its system NF-M. In words: NF-M levels in PC12 cells (Western blotting). It is filed as cell-based. The protocol: as §2
(§3) Equal amounts of protein (40 μg protein/lane) were loaded for sodium dodecyl sulfate-polyacrylamide gel electrophoresis (4-15% SDS PAGE; Bio-Rad, Hercules, Calif.). Prior to gel electrophoresis, bromphenol blue solution (0.07%) was added to each sample. Proteins were separated, transferred onto polyvinylidene difluoride (PVDF) membranes (Immobilon-P, Millipore), and blocked with 5% bovine serum albumin (Tris-buffered saline/0.15% Tween 20) for 1 h. After 3 10 min rinses in Tris-buffered saline (TBST), blots were incubated in TBST with various antibodies against the proteins of interest, including NF-70, NF-M (1: 2000, 1: 5000, respectively; Calbiochem, La Jolla, Calif.) at 4° C. overnight on an orbital shaker. […] Films were digitized using a Supervista S-12 scanner with a transparency adapter (UMAX Technologies, Freemont, Calif.). Analysis was performed using the public domain NIH Image program (NIH V.1.61).
(A western blot detects proteins with antibodies after separation by electrophoresis.)

The subject of data set [7] is PC12 cells. In words: Intracellular CDP-choline levels in PC12 cells. It is filed as cell-based. Particulars: after 50 minutes. How it is done: as §1, §2
The nature of data set [8]: Conversion of uridine to cytidine in plasma and brain of gerbils. It is filed as in vivo. To be noted: 250 mg/kg uridine orally, 60 min.
Data set [9] relates to NF-70. The data set can be described thus: NF-70 levels in PC12 cells (Western blotting). It is filed as cell-based. The protocol:
as §2, §3

Take `Nc1c(S(=O)(=O)O)cc(Nc2ccc(Nc3nc(Cl)nc(Nc4cccc(S(=O)(=O)O)c4)n3)c(S(=O)(=O)O)c2)c2c1C(=O)c1ccccc1C2=O` [RB-2, reactive blue 2]: the “Inhibition of uptake of uridine into PC12 cells” value (“Inhibition” below) in data set [1] was “None of the P2Y receptor antagonists inhibited the uptake of uridine”.
As to `O=c1ccn([C@@H]2O[C@H](COP(=O)(O)OP(=O)(O)OP(=O)(O)O)[C@@H](O)[C@H]2O)c(=O)[nH]1` [UTP, uridine-5′-triphosphate], the “Formation of IP” value in [2] is given as “significantly increased”. Besides, in data set [3], the “Intracellular CTP levels” value was “did not significantly affect” and the “Intracellular UTP levels” value was “did not significantly affect”. In addition, the Neurite outgrowth entry in data set [4] (with NGF, 10 and 50 μM, 4 days, vs NGF only) is “significantly (p<0.01) enhanced”.
Regarding `Nc1ccn([C@@H]2O[C@H](CO)[C@@H](O)[C@H]2O)c(=O)n1` [cytidine, reference compound], in data set [3], the “Intracellular CTP levels” value is “did not significantly affect” and the “Intracellular UTP levels” value was “did not significantly affect”. For the same compound, in data set [4] (NGF-exposed cells, cytidine), the Neurite outgrowth result is listed as “had no effect on neurite outgrowth”.
`Cc1nc(N=Nc2ccc(S(=O)(=O)O)cc2S(=O)(=O)O)c(COP(=O)(O)O)c(C=O)c1O` [PPADS, pyridoxal-phosphate-6-azophenyl-2′,4′ disulfonic acid, reference compound]: the “Block of stimulation of IP signaling by UTP” value in [2] (PPADS 100 μM) is reported as “significantly (p<0.05) blocked”. Moreover, in data set [1], the “Inhibition” value is “None of the P2Y receptor antagonists inhibited the uptake of uridine”.
On to `Cc1ccc(C(=O)Nc2ccc(S(=O)(=O)O)c3cc(S(=O)(=O)O)cc(S(=O)(=O)O)c23)cc1NC(=O)c1cccc(NC(=O)Nc2cccc(C(=O)Nc3cc(C(=O)Nc4ccc(S(=O)(=O)O)c5cc(S(=O)(=O)O)cc(S(=O)(=O)O)c45)ccc3C)c2)c1` [suramin], for which the “Inhibition” value in [1] is “None of the P2Y receptor antagonists inhibited the uptake of uridine”.
For the compound `O=c1ccn([C@@H]2O[C@H](CO)[C@@H](O)[C@H]2O)c(=O)[nH]1` [uridine], the “Formation of IP” value in data set [2] is given as “significantly increased”. The “Expression of P2Y2, P2Y4 and P2Y6 receptors” value in data set [5] is given as “did not affect the expression”. In addition, the NF-M expression entry in data set [6] (NGF plus 50 μM, 4 days, vs NGF only, p<0.001) is “increased”. Further, the NF-M level result in [6] (absence of NGF) is reported as “had no effect”. In data set [3], the “Intracellular CTP levels” value was “significantly (p<0.05) increased” and the “Intracellular UTP levels” value is recorded as “significantly (p<0.05) increased”. Also, in [7], the “Intracellular CDP-choline levels” value was “statistically significant increase”. For the same compound, the Average neurite length result in data set [4] (NGF-differentiated cells) is listed as “did not significantly affect”. Further, the Production of neurites entry in data set [4] (absence of NGF, 50 μM, 2 or 4 days) is “did not result in the production of neurites”. The “Number of neurite branch points per cell” value in data set [4] (with NGF, 50 μM, 4 days) was “significantly (p<0.01) increased”. Moreover, the “Number of neurites per cell” value in data set [4] (with NGF, 2-day treatment or lower concentrations (10, 25 μM)) is “had no effect”. The “Conversion to cytidine in brain versus plasma” value in data set [8] is listed as “more efficiently converted to cytidine than in plasma”. For the same compound, the NF-70 expression entry in data set [9] (NGF plus 50 μM, 4 days, vs NGF only, p<0.01) was “increased”. For the same compound, the NF-70 level result in data set [9] (absence of NGF) is “had no effect”.
